The target in one assay is T1, Histone deacetylase 8 (Homo sapiens, UniProt Q9BY41).
T1 sequence (Q9BY41 whole entry): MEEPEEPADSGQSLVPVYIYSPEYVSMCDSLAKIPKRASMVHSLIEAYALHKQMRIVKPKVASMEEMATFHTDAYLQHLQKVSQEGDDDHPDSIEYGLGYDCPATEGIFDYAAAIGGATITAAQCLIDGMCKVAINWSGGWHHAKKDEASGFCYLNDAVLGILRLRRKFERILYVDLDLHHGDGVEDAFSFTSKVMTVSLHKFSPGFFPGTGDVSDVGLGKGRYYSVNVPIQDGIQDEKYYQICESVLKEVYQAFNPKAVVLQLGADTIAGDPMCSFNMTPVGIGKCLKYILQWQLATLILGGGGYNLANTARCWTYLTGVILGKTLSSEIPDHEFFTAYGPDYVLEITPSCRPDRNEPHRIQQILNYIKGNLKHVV
Kind of assay: (§1) Inhibition of HDAC8 (unknown origin) using fluorophore-conjugated substrate by fluorescence assay.

For the next assay, the target named is Histone deacetylase 1 (Homo sapiens, UniProt Q13547). The assay can be described thus: Inhibition of recombinant full length human C-terminal FLAG/His-tagged HDAC1 expressed in baculovirus expression system using fluorophore-conjugated substrate by fluorescence assay.
Chain of Histone deacetylase 1 (Q13547 whole entry): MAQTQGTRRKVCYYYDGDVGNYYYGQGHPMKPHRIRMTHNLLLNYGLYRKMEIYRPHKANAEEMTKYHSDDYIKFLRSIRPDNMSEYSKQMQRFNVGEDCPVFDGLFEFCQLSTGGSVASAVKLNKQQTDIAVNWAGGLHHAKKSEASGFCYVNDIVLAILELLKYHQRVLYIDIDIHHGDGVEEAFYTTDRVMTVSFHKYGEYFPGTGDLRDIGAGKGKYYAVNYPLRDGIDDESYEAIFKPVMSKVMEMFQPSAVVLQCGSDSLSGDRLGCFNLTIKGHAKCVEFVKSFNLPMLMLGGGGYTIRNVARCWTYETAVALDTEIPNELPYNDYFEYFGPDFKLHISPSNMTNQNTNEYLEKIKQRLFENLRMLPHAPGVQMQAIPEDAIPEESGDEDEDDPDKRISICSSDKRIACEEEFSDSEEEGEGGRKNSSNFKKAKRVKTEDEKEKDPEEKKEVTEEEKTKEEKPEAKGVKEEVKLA
A further assay addresses Histone deacetylase 2 (Homo sapiens, UniProt Q92769). Kind of assay: Inhibition of recombinant full length human HDAC2 expressed in sf9 cells using fluorophore-conjugated substrate by fluorescence assay.
Another assay deals with Histone deacetylase 3 (Homo sapiens, UniProt O15379). Kind of assay: Inhibition of recombinant full length human C-terminal His-tagged HDAC3 expressed in sf9 cells co-expressing human N-terminal GST-tagged NCOR2 (395 to 489 residues) using fluorophore-conjugated substrate by fluorescence assay.
Chain of Histone deacetylase 3 (O15379 whole entry, the tested form may be a part): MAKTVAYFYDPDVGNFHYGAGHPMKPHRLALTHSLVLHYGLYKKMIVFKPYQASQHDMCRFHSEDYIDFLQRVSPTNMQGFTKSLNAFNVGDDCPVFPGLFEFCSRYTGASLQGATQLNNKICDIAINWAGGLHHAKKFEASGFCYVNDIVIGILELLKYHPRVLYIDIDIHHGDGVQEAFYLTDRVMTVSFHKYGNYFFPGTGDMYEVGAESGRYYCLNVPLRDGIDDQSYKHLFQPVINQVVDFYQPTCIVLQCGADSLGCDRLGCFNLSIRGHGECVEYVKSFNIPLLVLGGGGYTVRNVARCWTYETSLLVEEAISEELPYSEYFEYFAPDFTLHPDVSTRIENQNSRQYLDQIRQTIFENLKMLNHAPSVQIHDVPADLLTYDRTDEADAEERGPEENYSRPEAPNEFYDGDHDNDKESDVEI
The target of assay [1] is T2, Protein deacetylase HDAC6 (Homo sapiens) (UniProt Q9UBN7).
T2 sequence (whole entry): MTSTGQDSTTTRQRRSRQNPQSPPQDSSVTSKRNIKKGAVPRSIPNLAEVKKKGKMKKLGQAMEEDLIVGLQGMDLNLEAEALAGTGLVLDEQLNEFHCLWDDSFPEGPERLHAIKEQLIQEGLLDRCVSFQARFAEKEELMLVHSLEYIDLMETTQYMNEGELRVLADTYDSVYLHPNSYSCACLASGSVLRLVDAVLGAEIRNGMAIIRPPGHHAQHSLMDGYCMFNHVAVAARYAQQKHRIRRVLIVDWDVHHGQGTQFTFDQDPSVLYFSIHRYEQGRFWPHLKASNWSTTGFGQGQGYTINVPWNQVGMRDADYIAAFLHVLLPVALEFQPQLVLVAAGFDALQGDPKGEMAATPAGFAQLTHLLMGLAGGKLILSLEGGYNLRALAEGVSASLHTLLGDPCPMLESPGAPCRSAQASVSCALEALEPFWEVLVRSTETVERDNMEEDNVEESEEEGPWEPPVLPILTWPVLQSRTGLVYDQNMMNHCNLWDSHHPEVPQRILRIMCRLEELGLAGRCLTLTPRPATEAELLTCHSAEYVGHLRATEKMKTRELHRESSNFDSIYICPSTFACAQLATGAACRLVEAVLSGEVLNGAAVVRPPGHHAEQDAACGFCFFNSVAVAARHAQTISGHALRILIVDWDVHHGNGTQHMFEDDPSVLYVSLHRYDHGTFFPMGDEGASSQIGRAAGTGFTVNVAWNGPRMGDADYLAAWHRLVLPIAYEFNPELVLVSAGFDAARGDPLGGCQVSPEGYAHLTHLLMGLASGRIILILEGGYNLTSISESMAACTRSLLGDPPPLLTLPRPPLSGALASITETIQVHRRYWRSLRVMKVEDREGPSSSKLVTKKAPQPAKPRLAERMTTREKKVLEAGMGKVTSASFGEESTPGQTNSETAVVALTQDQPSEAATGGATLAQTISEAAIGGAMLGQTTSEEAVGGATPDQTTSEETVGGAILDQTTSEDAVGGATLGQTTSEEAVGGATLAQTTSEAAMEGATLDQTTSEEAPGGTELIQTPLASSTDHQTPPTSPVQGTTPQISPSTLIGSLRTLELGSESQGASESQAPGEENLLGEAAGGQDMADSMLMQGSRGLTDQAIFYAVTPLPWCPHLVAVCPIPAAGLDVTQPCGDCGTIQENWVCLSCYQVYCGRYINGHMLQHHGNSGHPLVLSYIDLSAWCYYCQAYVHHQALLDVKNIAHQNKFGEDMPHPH
Kind of assay: (§2) Inhibition of recombinant full length human HDAC6 expressed in sf9 cells using fluorophore-conjugated substrate by fluorescence assay.

The target of the next assay is Histone deacetylase 4 (Homo sapiens, UniProt P56524). The assay can be described thus: Inhibition of HDAC4 (unknown origin).
Chain of Histone deacetylase 4 (P56524 whole entry): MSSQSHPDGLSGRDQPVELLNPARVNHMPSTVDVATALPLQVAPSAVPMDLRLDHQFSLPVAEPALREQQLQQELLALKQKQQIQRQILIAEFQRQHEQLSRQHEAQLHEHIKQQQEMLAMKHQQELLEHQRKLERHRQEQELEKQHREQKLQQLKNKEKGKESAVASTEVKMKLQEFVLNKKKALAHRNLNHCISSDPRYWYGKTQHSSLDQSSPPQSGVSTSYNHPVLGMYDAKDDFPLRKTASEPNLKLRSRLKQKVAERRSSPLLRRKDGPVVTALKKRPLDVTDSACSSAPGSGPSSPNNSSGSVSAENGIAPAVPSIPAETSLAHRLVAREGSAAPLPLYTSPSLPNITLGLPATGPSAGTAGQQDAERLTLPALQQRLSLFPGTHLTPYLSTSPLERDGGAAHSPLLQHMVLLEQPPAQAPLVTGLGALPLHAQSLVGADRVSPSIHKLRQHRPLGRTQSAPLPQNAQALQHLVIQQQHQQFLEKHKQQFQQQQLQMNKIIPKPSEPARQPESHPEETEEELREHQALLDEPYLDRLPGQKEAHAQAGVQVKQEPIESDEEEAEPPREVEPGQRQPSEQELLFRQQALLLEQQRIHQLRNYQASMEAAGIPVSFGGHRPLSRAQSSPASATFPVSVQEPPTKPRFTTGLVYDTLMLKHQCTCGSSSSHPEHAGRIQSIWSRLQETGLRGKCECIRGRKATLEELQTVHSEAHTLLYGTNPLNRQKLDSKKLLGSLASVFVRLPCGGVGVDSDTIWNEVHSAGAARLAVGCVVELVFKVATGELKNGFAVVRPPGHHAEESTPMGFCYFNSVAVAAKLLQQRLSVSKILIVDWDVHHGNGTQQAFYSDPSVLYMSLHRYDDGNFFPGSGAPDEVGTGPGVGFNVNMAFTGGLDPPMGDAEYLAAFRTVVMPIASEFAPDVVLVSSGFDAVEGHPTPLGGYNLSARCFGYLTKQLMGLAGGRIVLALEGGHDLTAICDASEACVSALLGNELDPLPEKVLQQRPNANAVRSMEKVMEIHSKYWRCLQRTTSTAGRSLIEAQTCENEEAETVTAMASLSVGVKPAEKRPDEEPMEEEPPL
In a further assay the target is Histone deacetylase 5 (Homo sapiens, UniProt Q9UQL6). The assay can be described thus: Inhibition of HDAC5 (unknown origin).
Chain of Histone deacetylase 5 (Q9UQL6 whole entry): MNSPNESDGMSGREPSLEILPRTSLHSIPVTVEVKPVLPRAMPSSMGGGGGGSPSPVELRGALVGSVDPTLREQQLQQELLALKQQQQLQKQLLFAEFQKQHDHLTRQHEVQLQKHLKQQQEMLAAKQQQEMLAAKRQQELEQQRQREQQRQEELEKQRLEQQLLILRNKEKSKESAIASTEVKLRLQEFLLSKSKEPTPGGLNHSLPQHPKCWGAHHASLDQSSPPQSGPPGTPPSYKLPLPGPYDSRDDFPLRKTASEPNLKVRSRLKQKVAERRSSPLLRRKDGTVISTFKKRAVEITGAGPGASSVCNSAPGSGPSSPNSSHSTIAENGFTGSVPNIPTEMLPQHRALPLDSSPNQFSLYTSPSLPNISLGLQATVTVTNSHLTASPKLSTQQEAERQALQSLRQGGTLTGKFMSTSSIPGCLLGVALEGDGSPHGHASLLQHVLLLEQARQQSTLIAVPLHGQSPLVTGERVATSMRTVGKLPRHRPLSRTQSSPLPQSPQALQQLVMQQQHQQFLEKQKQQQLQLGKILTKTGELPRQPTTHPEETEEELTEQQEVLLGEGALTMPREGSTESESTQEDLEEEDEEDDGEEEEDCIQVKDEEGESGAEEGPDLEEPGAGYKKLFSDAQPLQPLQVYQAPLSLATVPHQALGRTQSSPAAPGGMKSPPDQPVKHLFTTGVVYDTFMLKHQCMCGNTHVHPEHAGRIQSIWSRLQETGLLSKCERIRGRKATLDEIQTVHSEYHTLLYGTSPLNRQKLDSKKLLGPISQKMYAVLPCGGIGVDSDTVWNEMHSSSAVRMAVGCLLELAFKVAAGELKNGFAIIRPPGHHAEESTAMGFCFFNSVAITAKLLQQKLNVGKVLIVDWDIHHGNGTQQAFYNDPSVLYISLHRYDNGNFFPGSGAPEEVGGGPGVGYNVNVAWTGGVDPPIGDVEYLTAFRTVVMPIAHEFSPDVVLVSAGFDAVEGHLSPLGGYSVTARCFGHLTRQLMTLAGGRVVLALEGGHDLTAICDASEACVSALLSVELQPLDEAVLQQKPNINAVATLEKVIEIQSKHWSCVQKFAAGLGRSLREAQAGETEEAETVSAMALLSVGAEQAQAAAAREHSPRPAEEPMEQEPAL
In assay [2] the target is T3, Histone deacetylase 7 (Homo sapiens) (UniProt Q8WUI4).
T3 sequence (whole entry): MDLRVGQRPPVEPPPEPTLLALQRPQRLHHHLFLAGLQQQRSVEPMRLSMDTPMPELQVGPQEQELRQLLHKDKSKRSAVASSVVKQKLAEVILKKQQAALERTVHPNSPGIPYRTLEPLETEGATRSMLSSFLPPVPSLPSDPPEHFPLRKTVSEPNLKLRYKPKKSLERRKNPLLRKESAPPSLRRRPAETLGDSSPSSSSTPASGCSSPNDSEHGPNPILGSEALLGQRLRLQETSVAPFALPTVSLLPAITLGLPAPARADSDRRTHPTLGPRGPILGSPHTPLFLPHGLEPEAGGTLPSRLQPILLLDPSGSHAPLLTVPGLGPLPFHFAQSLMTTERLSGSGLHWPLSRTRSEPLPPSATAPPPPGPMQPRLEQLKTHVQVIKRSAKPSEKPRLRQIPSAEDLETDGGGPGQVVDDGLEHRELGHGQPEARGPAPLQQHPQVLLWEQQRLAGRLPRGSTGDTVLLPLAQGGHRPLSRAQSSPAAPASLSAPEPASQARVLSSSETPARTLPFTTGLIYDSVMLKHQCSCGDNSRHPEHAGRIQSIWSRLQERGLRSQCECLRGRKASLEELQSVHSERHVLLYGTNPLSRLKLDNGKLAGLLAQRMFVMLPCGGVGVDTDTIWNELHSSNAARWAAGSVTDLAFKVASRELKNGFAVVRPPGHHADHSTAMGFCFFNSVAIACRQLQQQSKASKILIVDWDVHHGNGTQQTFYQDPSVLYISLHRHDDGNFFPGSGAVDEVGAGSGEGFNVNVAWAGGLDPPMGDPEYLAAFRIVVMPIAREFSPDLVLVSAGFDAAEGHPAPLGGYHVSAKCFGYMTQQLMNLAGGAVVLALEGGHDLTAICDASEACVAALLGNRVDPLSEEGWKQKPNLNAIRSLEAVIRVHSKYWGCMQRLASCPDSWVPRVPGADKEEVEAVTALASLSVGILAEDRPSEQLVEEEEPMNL
The assay can be described thus: (§3) Inhibition of HDAC7 (unknown origin).

Assay [3] deals with T4, Histone deacetylase 8 (Homo sapiens) (UniProt Q9BY41).
T4 sequence (whole entry): T1 sequence (Q9BY41 whole entry)
The description is as §1.

The target in the next assay is Histone deacetylase 9 (Homo sapiens, UniProt Q9UKV0). Kind of assay: Inhibition of HDAC9 (unknown origin).
Chain of Histone deacetylase 9 (Q9UKV0 whole entry): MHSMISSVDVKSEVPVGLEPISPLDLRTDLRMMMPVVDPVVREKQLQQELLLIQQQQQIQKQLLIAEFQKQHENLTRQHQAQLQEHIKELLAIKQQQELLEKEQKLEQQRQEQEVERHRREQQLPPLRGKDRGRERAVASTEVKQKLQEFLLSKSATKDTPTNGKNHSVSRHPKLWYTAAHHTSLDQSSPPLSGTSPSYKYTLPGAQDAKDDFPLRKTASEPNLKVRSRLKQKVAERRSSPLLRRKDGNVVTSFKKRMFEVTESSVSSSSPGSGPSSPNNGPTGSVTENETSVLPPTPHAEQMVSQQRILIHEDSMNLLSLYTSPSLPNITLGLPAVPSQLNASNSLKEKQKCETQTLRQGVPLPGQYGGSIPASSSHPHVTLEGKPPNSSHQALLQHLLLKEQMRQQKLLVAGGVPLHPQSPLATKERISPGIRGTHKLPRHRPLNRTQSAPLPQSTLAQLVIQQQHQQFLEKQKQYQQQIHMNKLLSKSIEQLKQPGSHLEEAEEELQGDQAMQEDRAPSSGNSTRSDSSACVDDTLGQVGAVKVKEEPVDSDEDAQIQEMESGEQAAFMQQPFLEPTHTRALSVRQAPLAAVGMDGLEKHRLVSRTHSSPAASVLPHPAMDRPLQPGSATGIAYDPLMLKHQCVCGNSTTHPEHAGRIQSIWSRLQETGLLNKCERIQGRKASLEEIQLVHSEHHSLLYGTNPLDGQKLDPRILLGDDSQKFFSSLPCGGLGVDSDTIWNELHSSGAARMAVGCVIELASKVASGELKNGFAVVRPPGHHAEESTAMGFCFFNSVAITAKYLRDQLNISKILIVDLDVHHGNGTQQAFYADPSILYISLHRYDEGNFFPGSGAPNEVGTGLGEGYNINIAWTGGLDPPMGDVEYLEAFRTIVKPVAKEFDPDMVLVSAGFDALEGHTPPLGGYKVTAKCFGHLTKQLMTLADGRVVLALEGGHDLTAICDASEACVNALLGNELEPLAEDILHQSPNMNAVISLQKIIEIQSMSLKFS
For assay [4], the target named is T5, Protein deacetylase HDAC6 (Homo sapiens, UniProt Q9UBN7).
T5 sequence (Q9UBN7 whole entry): T2 sequence (whole entry)
The assay is described as §2.

The next assay deals with T6, Histone deacetylase 7 (Homo sapiens, UniProt Q8WUI4).
T6 sequence (Q8WUI4 whole entry): T3 sequence (whole entry)
The description is as §3.

The record followed here is ChEMBL document CHEMBL4428137, “Development of a Potent and Selective HDAC8 Inhibitor” (ACS Med Chem Lett, 2016).

Molecules are shown by their SMILES. Activity calls are given as the source filed them. The rule behind the calls is not given here.

Chain of Histone deacetylase 2 (Q92769 whole entry, the tested form may be a part): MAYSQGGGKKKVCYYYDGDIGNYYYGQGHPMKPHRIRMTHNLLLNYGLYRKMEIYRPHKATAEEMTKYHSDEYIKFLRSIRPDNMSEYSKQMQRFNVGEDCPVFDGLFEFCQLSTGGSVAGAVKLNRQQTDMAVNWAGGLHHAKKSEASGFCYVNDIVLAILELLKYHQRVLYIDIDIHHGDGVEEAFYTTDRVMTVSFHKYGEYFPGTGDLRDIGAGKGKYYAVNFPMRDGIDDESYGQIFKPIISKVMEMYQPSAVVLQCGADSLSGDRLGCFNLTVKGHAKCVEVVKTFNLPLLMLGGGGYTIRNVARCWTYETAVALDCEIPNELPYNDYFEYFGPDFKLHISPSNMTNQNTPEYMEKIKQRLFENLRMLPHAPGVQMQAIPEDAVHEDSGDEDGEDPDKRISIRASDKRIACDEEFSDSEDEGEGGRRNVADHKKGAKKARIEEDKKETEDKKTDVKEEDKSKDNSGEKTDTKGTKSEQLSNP

As a reminder, the IC50 is the concentration that gives 50% inhibition. Consider `CCC/C=C/c1c(-c2ccccc2)nnn1[C@@H](Cc1ccccc1)C(=O)NO`, for which 464 nM corresponded to half-maximal inhibition against Histone deacetylase 8 (IC50).
As to `COC(=O)[C@H](Cc1ccccc1)n1nnc(-c2ccccc2)c1C#Cc1ccccc1`, the inhibition result (on Histone deacetylase 1; at Histone deacetylase 2; at Histone deacetylase 3; in assay [1]; on Histone deacetylase 4; at Histone deacetylase 5) was “inactive” throughout. The inhibition entry (in assay [2]; in [3]; at Histone deacetylase 9) was “inactive” throughout.
For the compound `CNC(=O)[C@H](Cc1ccccc1)n1nnc(-c2ccccc2)c1C#Cc1ccccc1`, the inhibition entry (on Histone deacetylase 1; on Histone deacetylase 2; at Histone deacetylase 3; in [1]; at Histone deacetylase 4; at Histone deacetylase 5) was “inactive” throughout. Also, the inhibition entry (in [2]; in [3]; on Histone deacetylase 9) was “inactive” in each case.
Take `CCc1ccc(C#Cc2c(-c3ccccc3)nnn2[C@@H](Cc2ccccc2)C(=O)NO)cc1`: the IC50 on Histone deacetylase 8 is 1500 nM.
`CC(C)(C)c1ccc(-c2nnn([C@@H](Cc3ccccc3)C(=O)NO)c2C#CC2CC2)cc1` gave a 50% inhibitory concentration (IC50) on Histone deacetylase 8 of 133 nM.
As for `O=C(NO)[C@H](Cc1ccccc1)n1nnc(-c2ccccc2)c1CCC1CC1`, the inhibition result in [3] is “inactive”.
Consider `O=C(NO)[C@H](Cc1ccccc1)n1nnc(-c2ccccc2)c1C#Cc1ccccc1`, for which the IC50 on Histone deacetylase 1 is more than 20000 nM; on Histone deacetylase 2, more than 20000 nM; at Histone deacetylase 3, more than 20000 nM; in [4] it was 3600 nM; against Histone deacetylase 4, more than 20000 nM; at Histone deacetylase 5, more than 20000 nM. Further, the IC50 at Histone deacetylase 7 was more than 20000 nM; against Histone deacetylase 8 it was 10 nM; against Histone deacetylase 9 it was more than 20000 nM.
Regarding `O=C(NO)[C@H](Cc1ccccc1)n1nnc(-c2ccccc2)c1/C=C/C1CC1`, in [3], the inhibition entry was “inactive”.
With `CC(C)[C@@H](C(=O)NO)n1nnc(-c2ccccc2)c1C#Cc1ccccc1`, inhibition against Histone deacetylase 8 was half-maximal at 2300 nM (IC50).
Take `O=C(NO)[C@H](Cc1ccccc1)n1cc(-c2ccccc2)nn1`: the inhibition entry (on Histone deacetylase 1; on Histone deacetylase 2; at Histone deacetylase 3; in [1]; on Histone deacetylase 4; on Histone deacetylase 5) was “inactive” throughout. Moreover, the inhibition entry (in [2]; in assay [3]; at Histone deacetylase 9) was “inactive” in each case.
`O=C(NO)[C@H](Cc1ccccc1)n1nnc(-c2ccsc2)c1C#CC1CC1` displayed an IC50 against Histone deacetylase 8 of 4 nM.
Consider `COc1cc(OC)cc(-c2nnn([C@@H](Cc3ccccc3)C(=O)NO)c2C#CC2CC2)c1`, for which the midpoint of inhibition against Histone deacetylase 8, the IC50, lay at 3 nM.
In turn, `O=C(NO)[C@H](Cc1c[nH]c2ccccc12)n1nnc(-c2ccccc2)c1C#CC1CC1` displayed an IC50 against Histone deacetylase 8 of 7 nM.
On to `O=C(O)[C@H](Cc1ccccc1)n1nnc(-c2ccccc2)c1C#Cc1ccccc1`, for which the inhibition result (on Histone deacetylase 1; at Histone deacetylase 2; at Histone deacetylase 3; in assay [1]; at Histone deacetylase 4; at Histone deacetylase 5) was “inactive” throughout. In addition, the inhibition result (in assay [2]; in assay [3]; at Histone deacetylase 9) was “inactive” in each case.
On to `O=C(NO)[C@H](Cc1ccccc1)n1nnc(-c2ccccc2)c1C#CC1CC1`, for which the IC50 was 4300 nM on Histone deacetylase 1; more than 20000 nM at Histone deacetylase 2; more than 20000 nM at Histone deacetylase 3; 1200 nM in assay [4]; more than 20000 nM against Histone deacetylase 4; more than 20000 nM on Histone deacetylase 5. Besides, the IC50 was more than 20000 nM at Histone deacetylase 7, 0.8 nM against Histone deacetylase 8 and more than 20000 nM on Histone deacetylase 9.
As for `O=C(NO)[C@@H](Cc1ccccc1)n1nnc(-c2ccccc2)c1C#Cc1ccccc1`, the inhibition result (at Histone deacetylase 1; on Histone deacetylase 2; on Histone deacetylase 3; in assay [1]; on Histone deacetylase 4; at Histone deacetylase 5) was “inactive” in each case. The inhibition result (in assay [2]; in [3]; on Histone deacetylase 9) was “inactive” throughout.
On Histone deacetylase 8, `O=C(NO)[C@H](Cc1ccccc1)n1nnc(-c2cccc(Cl)c2)c1C#CC1CC1` had an IC50 of 8 nM.
Compound `O=C(NO)[C@H](Cc1ccccc1)n1nnc(-c2ccccc2)c1C#Cc1ccc(-c2ccccc2)cc1` had an IC50 against Histone deacetylase 8 of 9100 nM.
As for `CCCCCc1c(-c2ccccc2)nnn1[C@@H](Cc1ccccc1)C(=O)NO`, at Histone deacetylase 8, the IC50 came out at 160 nM.
